# Laboratory results from patent US20130078718A1, “CONVERSION OF VASCULAR ENDOTHELIAL CELLS INTO MULTIPOTENT STEM-LIKE CELLS” (PRESIDENT AND FELLOWS OF HARVARD COLLEGE, priority 2010, published 2013).
# Legend:
# HUVECs and HCMECs = experiment: In vivo multipotency: polylactic acid scaffolds with pre-treated endothelial cells implanted into nude mice; design: species or system immunodeficient nude mice; details: for co-expression of Qtracker label with osteocalcin, SOX9 or adiponectin in implants (immunohistochemistry): cells pre-labeled with quantum dots, pre-treated, implanted 6 weeks; for bone, cartilage or fat products in implanted scaffolds (alizarin red, alcian blue, oil red O): cells pre-treated, differentiation medium injected locally every 72 h for 6 weeks
# Experimental: Cells were grown in StemPro osteogenic, chondrogenic, or adipogenic culture medium (Invitrogen). Alkaline phosphatase staining was performed using the alkaline phosphatase kit and protocol (Sigma-Aldrich) on cultures grown in osteogenic medium for 7 d to detect osteoblasts. Alizarin Red (Sigma-Aldrich) staining was performed for 30 min on cultures grown in osteogenic medium for 21 d to detect matrix calcification. Alcian Blue (Sigma) staining was used to stain chondrocyte proteoglycans for 5 minutes in cultures grown in chondrogenic medium for 14 d. Oil Red O (Sigma-Aldrich) staining was performed for 15 min on cultures grown in adipogenic medium for 7 d. For in vivo analysis, endothelial cells were labeled with fluorescent quantum dots using the Qtracker 525 Cell Labeling Kit (Invitrogen). Cells were treated in culture to induce EndMT then absorbed into OPLA polylactic acid scaffolds (BD Biosciences). Scaffolds were surgically implanted subcutaneously into immunodeficient nude mice (Nu/Nu strain; Charles River Laboratories). Local injection of StemPro differentiation medium (described above) was performed in the area of the implants every 72 h for 6 weeks. Scaffolds were cryosectioned and stained with Alizarin Red, Alcian Blue, or Oil Red O as described above. All procedures were reviewed and approved by the Institutional Animal Care and Use Committee at Harvard Medical School.
# [1] = test system: human cutaneous microvascular endothelial cells (HCMEC); experiment: Differentiation into myocytes, cardiomyocytes and neurons (immunoblotting); format: cell-based; details: 10 ng/ml, 48 hours, then myogenic, cardiomyogenic or neurogenic medium 14 days
# Experimental: Cardiomyogenic medium was purchased from Millipore Inc., (SCM-102).
# Myogenic medium consisted of human endothelial serum-free medium supplemented with 5% horse serum, 0.1 μM dexamethasone, and 50 μM hydrocortisone (previously described by Gang et al, 2004).
# Neurogenic medium consisted human endothelial serum-free medium supplemented with 100 ng/ml bFGF (previously described by Jiang et al., 2002). Endothelial cells converted into mesenchymal stem-like cells by treatment with 10 ng/ml TGF-β2 for 48 hours were plated on fibronectin-coated polystyrene wells in the neurogenic medium.
Substance,"co-expression of Qtracker label with osteocalcin, SOX9 or adiponectin in implants (immunohistochemistry) (HUVECs and HCMECs)","bone, cartilage or fat products in implanted scaffolds (alizarin red, alcian blue, oil red O) (HUVECs and HCMECs)","expression of MyoD1, cardiac troponin I or neurofilament-L (immunoblotting) [1]"
"BMP4: Recombinant BMP4 protein (R&D Systems), ALK2 activating ligand, used at 10 ng/mL","co-expression of the Qtracker with osteocalcin, SOX9, or adiponectin","formation of bone, cartilage, or fat products",–
"TGF-β2: Recombinant TGF-β2 protein (R&D Systems), ALK2 activating ligand, used at 10 ng/mL","co-expression of the Qtracker with osteocalcin, SOX9, or adiponectin","formation of bone, cartilage, or fat products",did express these markers
